Data reported in patent publication US20150080465A1 (priority 2013, published 2015).

What was measured:
[1] = tested on: patients with type 2 diabetes and overt nephropathy; conditions: in vivo; cited from earlier work
[2] = monkeys, equivalent dosages orally in gelatin capsules; cited from earlier work
[3] = tested on: monocrotaline (MCT)-induced pulmonary arterial hypertension; conditions: rat, in vivo

Q: Which “Fluid overload-related adverse events, serious and non-serious” value [1] does the source give for COc1ccccc1Oc1c(NS(=O)(=O)c2ccc(C)cn2)nc(-c2ccncc2)nc1OC [Avosentan] here?
A: increased only within the first month of treatment

Q: For COC(=O)C12CCC(C)(C)CC1C1C(=O)C=C3C4(C)C=C(C#N)C(=O)C(C)(C)C4CCC3(C)C1(C)CC2 (stereo not drawn) [Form B], which Bioavailability [2] is on record?
A: higher than that of Form A

Q: For CCCc1nn(C)c2c(=O)[nH]c(-c3cc(S(=O)(=O)N4CCN(C)CC4)ccc3OCC)nc12 [sildenafil], which Pulmonary edema [3] is on record?
A: completely abrogated
